Values after ≈ are worked out from the molar mass of the structure shown.
What was measured:
[1] = system: Mycolicibacterium smegmatis; assay: Antimicrobial activity against Mycobacterium smegmatis by microdilution method; type: functional
Staphylococcus aureus = assay: Antimicrobial activity against methicillin-resistant Staphylococcus aureus by microdilution method; type: functional

Compound NNC(=O)c1ccncc1 [ISONIAZID] has an MIC [1] of 0.8 µg/mL (≈ 5.83 µM).

In the case of Oc1ccc([C@H]2c3c(O)cc(O)cc3[C@@H]3c4c(cc(O)cc4[C@H]2[C@H]2c4cc(O)cc5c4[C@@H](c4cc(O)cc(O)c4[C@@H]2c2ccc(O)cc2)[C@H](c2ccc(O)cc2)O5)O[C@H]3c2ccc(O)cc2)cc1 [ISOHOPEAPHENOL A], the MIC (Staphylococcus aureus) is reported as greater than 100 µg/mL and the MIC [1] is reported as greater than 100 µg/mL.

With Oc1ccc([C@@H]2c3c(O)cc(O)cc3[C@@H]3c4c(cc(O)c5c4[C@@H]2[C@H](c2ccc(O)cc2)[C@H]5c2cc(O)cc4c2[C@H](c2cc(O)cc(O)c2)[C@@H](c2ccc(O)cc2)O4)O[C@H]3c2ccc(O)cc2)cc1 [VATICAPHENOL A] the MIC (Staphylococcus aureus) was 50 µg/mL (≈ 55.1 µM) and the MIC [1] was 25 µg/mL (≈ 27.6 µM).

For Oc1ccc([C@@H]2c3c(O)cc(O)cc3[C@@H]3c4c(cc(O)cc4[C@H]2[C@H]2c4cc(O)cc5c4[C@@H](c4cc(O)cc(O)c4[C@@H]2c2ccc(O)cc2)[C@H](c2ccc(O)cc2)O5)O[C@H]3c2ccc(O)cc2)cc1 [HOPEAPHENOL A], the MIC (Staphylococcus aureus) was 100 µg/mL (≈ 110 µM) and the MIC [1] was 50 µg/mL (≈ 55.1 µM).

CN[C@H](CC(C)C)C(=O)N[C@H]1C(=O)N[C@@H](CC(N)=O)C(=O)N[C@H]2C(=O)N[C@H]3C(=O)N[C@H](C(=O)N[C@H](C(=O)O)c4cc(O)cc(O)c4-c4cc3ccc4O)[C@H](O)c3ccc(c(Cl)c3)Oc3cc2cc(c3O[C@@H]2O[C@H](CO)[C@@H](O)[C@H](O)[C@H]2O[C@H]2C[C@](C)(N)[C@H](O)[C@H](C)O2)Oc2ccc(cc2Cl)[C@H]1O [VANCOMYCIN] gave an MIC (Staphylococcus aureus) of 0.8 µg/mL (≈ 0.552 µM).
